# Results published in ChEMBL document CHEMBL4715874, “In Vivo Screening of Xanthones from Garcinia oligantha Identified Oliganthin H as a Novel Natural Inhibitor of Convulsions” (J Nat Prod, 2020).
# What was measured:
# [1] = species: Danio rerio; test: Anticonvulsant activity in AB zebra fish larvae assessed as PTZ-induced BDNF mRNA expression at 25 uM pretreated for 6 hrs followed by PTZ-stimulation and measured after 30 mins by qRT-PCR analysis (reference value: 11.41 +/- 1.09%); assay type: functional; conditions: time 6.5 hrs
# [2] = species: Danio rerio; test: Anticonvulsant activity in AB zebra fish larvae assessed as PTZ-induced pvalb5 mRNA expression at 25 uM pretreated for 6 hrs followed by PTZ-stimulation and measured after 30 mins by qRT-PCR analysis (reference value: 0.59 +/- 0.52%); assay type: functional; conditions: time 6.5 hrs
# [3] = species: Danio rerio; test: Anticonvulsant activity in AB zebra fish larvae assessed as PTZ-induced calb2 mRNA expression at 25 uM pretreated for 6 hrs followed by PTZ-stimulation and measured after 30 mins by qRT-PCR analysis (reference value: 0.88 +/- 0.39%); assay type: functional; conditions: time 6.5 hrs
# [4] = species: Danio rerio; test: Anticonvulsant activity in AB zebra fish larvae assessed as PTZ-induced PRKACB mRNA expression at 25 uM pretreated for 6 hrs followed by PTZ-stimulation and measured after 30 mins by qRT-PCR analysis (reference value: 1.49 +/- 0.69%); assay type: functional; conditions: time 6.5 hrs
# [5] = Effect of npas4a mRNA expression in AB zebra fish larvae at 25 uM after 6 hrs by qRT-PCR analysis (reference value: 1.04 +/- 0.41%); assay type: ADME, Danio rerio; conditions: zebrafish
# [6] = Effect of c-fos mRNA expression in AB zebra fish larvae at 25 uM after 6 hrs by qRT-PCR analysis (reference value: 1.06 +/- 0.52%); assay type: ADME, Danio rerio; conditions: zebrafish
# [7] = Effect of PYYA mRNA expression in AB zebra fish larvae at 25 uM after 6 hrs by qRT-PCR analysis (reference value: 1 +/- 0.13%); assay type: ADME, Danio rerio; conditions: zebrafish
# [8] = Effect of BDNF mRNA expression in AB zebra fish larvae at 25 uM after 6 hrs by qRT-PCR analysis (reference value: 1.01 +/- 0.21%); assay type: ADME, Danio rerio; conditions: zebrafish
# [9] = Effect of pvalb5 mRNA expression in AB zebra fish larvae at 25 uM after 6 hrs by qRT-PCR analysis (reference value: 1 +/- 0.07%); assay type: ADME, Danio rerio; conditions: zebrafish
# [10] = Effect of calb2 mRNA expression in AB zebra fish larvae at 25 uM after 6 hrs by qRT-PCR analysis (reference value: 1.02 +/- 0.33%); assay type: ADME, Danio rerio; conditions: zebrafish
# [11] = Effect of PRKACAB mRNA expression in AB zebra fish larvae at 25 uM after 6 hrs by qRT-PCR analysis (reference value: 1 +/- 0.03%); assay type: ADME, Danio rerio; conditions: zebrafish
# [12] = species: Danio rerio; test: Anticonvulsant activity in AB zebra fish larvae assessed as PTZ-induced gabra1 mRNA expression at 25 uM pretreated for 6 hrs followed by PTZ-stimulation and measured after 30 mins by qRT-PCR analysis (reference value: 19.68 +/- 3.28%); assay type: functional; conditions: time 6.5 hrs
# [13] = species: Danio rerio; test: Anticonvulsant activity in AB zebra fish larvae assessed as PTZ-induced gad1 mRNA expression at 25 uM pretreated for 6 hrs followed by PTZ-stimulation and measured after 30 mins by qRT-PCR analysis (reference value: 5.45 +/- 1.77%); assay type: functional; conditions: time 6.5 hrs
# [14] = species: Danio rerio; test: Anticonvulsant activity in AB zebra fish larvae assessed as PTZ-induced GLSA mRNA expression at 25 uM pretreated for 6 hrs followed by PTZ-stimulation and measured after 30 mins by qRT-PCR analysis (reference value: 3.4 +/- 0.5%); assay type: functional; conditions: time 6.5 hrs
# [15] = species: Danio rerio; test: Anticonvulsant activity in AB zebra fish larvae assessed as PTZ-induced GLULA mRNA expression at 25 uM pretreated for 6 hrs followed by PTZ-stimulation and measured after 30 mins by qRT-PCR analysis (reference value: 5.44 +/- 0.55%); assay type: functional; conditions: time 6.5 hrs
# [16] = species: Danio rerio; test: Anticonvulsant activity in AB zebra fish larvae assessed as PTZ-induced glud1a mRNA expression at 25 uM pretreated for 6 hrs followed by PTZ-stimulation and measured after 30 mins by qRT-PCR analysis (reference value: 1.67 +/- 0.4%); assay type: functional; conditions: time 6.5 hrs
# [17] = species: Danio rerio; test: Anticonvulsant activity in AB zebra fish larvae assessed as PTZ-induced ABAT mRNA expression at 25 uM pretreated for 6 hrs followed by PTZ-stimulation and measured after 30 mins by qRT-PCR analysis (reference value: 2.16 +/- 1.2%); assay type: functional; conditions: time 6.5 hrs
# [18] = species: Danio rerio; test: Anticonvulsant activity in AB zebra fish larvae assessed as PTZ-induced gat1 mRNA expression at 25 uM pretreated for 6 hrs followed by PTZ-stimulation and measured after 30 mins by qRT-PCR analysis (reference value: 1.63 +/- 0.28%); assay type: functional; conditions: time 6.5 hrs
# [19] = Effect of gabra1 mRNA expression in AB zebra fish larvae at 25 uM after 6 hrs by qRT-PCR analysis (reference value: 1 +/- 0.11%); assay type: ADME, Danio rerio; conditions: zebrafish
# [20] = Effect of gad1 mRNA expression in AB zebra fish larvae at 25 uM after 6 hrs by qRT-PCR analysis (reference value: 1 +/- 0.11%); assay type: ADME, Danio rerio; conditions: zebrafish
# [21] = Effect of GLSA mRNA expression in AB zebra fish larvae at 25 uM after 6 hrs by qRT-PCR analysis (reference value: 1 +/- 0.18%); assay type: ADME, Danio rerio; conditions: zebrafish
# [22] = Effect of GLULA mRNA expression in AB zebra fish larvae at 25 uM after 6 hrs by qRT-PCR analysis (reference value: 1.02 +/- 0.29%); assay type: ADME, Danio rerio; conditions: zebrafish
# [23] = Effect of glud1a mRNA expression in AB zebra fish larvae at 25 uM after 6 hrs by qRT-PCR analysis (reference value: 1 +/- 0.16%); assay type: ADME, Danio rerio; conditions: zebrafish
# [24] = Effect of ABAT mRNA expression in AB zebra fish larvae at 25 uM after 6 hrs by qRT-PCR analysis (reference value: 1 +/- 0.11%); assay type: ADME, Danio rerio; conditions: zebrafish
# [25] = Effect of gat1 mRNA expression in AB zebra fish larvae at 25 uM after 6 hrs by qRT-PCR analysis (reference value: 1.03 +/- 0.38%); assay type: ADME, Danio rerio; conditions: zebrafish
smiles,measurement,setting,value
CC(C)=CCC/C(C)=C/C[C@@]1(CC=C(C)C)C(=O)C(O)=C(O)c2oc3c4c(cc(O)c3c(=O)c21)OC(C)(C)C=C4,Activity,[1],1.32%
same,Activity,[2],0.85%
same,Activity,[3],0.97%
same,Activity,[4],1.21%
same,Activity,[5],1.95%
same,Activity,[6],1.67%
same,Activity,[7],2.27%
same,Activity,[8],1.14%
same,Activity,[9],0.86%
same,Activity,[10],0.86%
same,Activity,[11],0.9%
same,Activity,[12],1.34%
same,Activity,[13],1.08%
same,Activity,[14],0.92%
same,Activity,[15],1.61%
same,Activity,[16],1.24%
same,Activity,[17],0.53%
same,Activity,[18],1.13%
same,Activity,[19],1.77%
same,Activity,[20],1.31%
same,Activity,[21],0.78%
same,Activity,[22],0.76%
same,Activity,[23],1%
same,Activity,[24],0.7%
same,Activity,[25],0.87%
